According to patent US5246935A, “Piperazinyl derivatives and methods of treating central nervous system ailments relating to the 5-HT2 receptor system” (Novo Nordisk A/S, priority 1990, dated 1993):
Where a name gives a salt, the structure may show the parent alone.

Assays:
[1] = system: acetic acid-induced writhings in mice; assay: Antagonism of Acetic Acid-Induced Writhings In Mice; format: in vivo, mouse (NMRI); details: Mus musculus, sc; s.c. 30 min before acetic acid 0.5 per cent i.p.; 50 per cent protection
Method: Antagonism of Acetic Acid-Induced Writhings In Mice
In mice i.p. injection of acetic acid induces a writhing syndrome which is antagonized by analgesics (Siegmund et al., 1957; Eckhardt et al., 1957).
Acetic acid 0.5 per cent is injected i.p. (0.15 ml/10 g body weight) to 6 mice (NMRI, either sex weighing 20-25 g) pretreated with physiological saline (controls) and to 6 mice pretreated with test substance. In the controls acetic acid induces a syndrome characterized by contraction of abdomen, turning of trunk and extension of hind limbs. Saline and test substances are administered s.c. 30 min. before acetic acid. The number of writhings is counted 5-15 min. after injection of acetic acid.
The activity is expressed as per cent protection: [formula]
The effect of active substances is evaluated by a dose response curve, log dose on the abscissa, and per cent protection on the ordinate. The potency is expressed as the dose (ED50 in mg/kg giving 50 per cent protection against writhings.
This test is used as a screening test for analgesics. Additional results from other screening tests are required to exclude active anti-writhing substances without analgesic effect.

5-HT2 receptor = details: cited from earlier work
anxiety, depression = details: clinical; cited from earlier work
[2] = system: ischemic neuronal damage in the gerbil; details: cited from earlier work
dopamine D2 receptors = details: cited from earlier work
psychosis = details: in vivo; cited from earlier work
5-HT1A receptors = details: cited from earlier work
[3] = system: 5HT2, alpha1-adrenergic and dopaminergic receptors; details: cited from earlier work
5HT1A receptor = target: T1, 5HT1A receptor (Rattus norvegicus, UniProt P19327); assay: In-Vitro inhibition of 5HT1A receptor binding (3H-8-OH-DPAT); set-up: species or system rat (male Wistar); details: 3H-8-OH-DPAT 1 nM, rat frontal cortex and hippocampus, 37° C., 10 min
T1 sequence (P19327 1-422): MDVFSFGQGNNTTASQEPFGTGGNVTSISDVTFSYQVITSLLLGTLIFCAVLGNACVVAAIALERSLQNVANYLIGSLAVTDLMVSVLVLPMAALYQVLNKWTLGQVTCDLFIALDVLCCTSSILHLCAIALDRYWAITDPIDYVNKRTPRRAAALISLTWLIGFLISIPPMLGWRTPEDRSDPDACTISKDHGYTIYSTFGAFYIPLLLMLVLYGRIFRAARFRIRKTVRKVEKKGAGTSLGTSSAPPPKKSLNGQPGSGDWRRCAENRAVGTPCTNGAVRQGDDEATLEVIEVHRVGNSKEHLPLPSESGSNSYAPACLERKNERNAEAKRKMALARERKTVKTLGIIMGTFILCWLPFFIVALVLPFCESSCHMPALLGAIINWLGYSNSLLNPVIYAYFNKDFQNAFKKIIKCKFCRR
Method: In-Vitro inhibition of 5HT1A receptor binding
(§1) Radioactive-labelled ligand ^3 H-80H-DPAT is incubated with isolated cell-membrane fragments at 37° C. for a given period of time. Following completed incubation, the incubate is filtered through GF/F filters which are rinsed after filtration to remove unspecifically adhered radioactivity. As opposed to low-molecular compounds, membrane fragments are not rinsed through the filters, the radioactivity bound to the filters indicates the amount of ligand bound specifically as well as nonspecifically to the membranes.
Male Wistar rats, 150-200 g are decapitated, and frontal cortex (approx. 200 mg) and hippocampus (approx. 70 mg) homogenized in 2×10 ml ice-cold DPAT buffer for 20 sec. applying polytron kinematica setting 6. Centrifuged at 20,000 rpm for 10 min. at 4° C. The pellet is transferred to 2×10 ml ice-cold DPAT buffer, homogenized for 20 sec. and preincubated for 10 min. at 37° C. Centrifuged at 20,000 rpm for 10 min. at 4° C. Final pellet added to 125×vol. of same buffer with 10 μM paragylin added (ex. 270 mg tissue in 33.75 ml DPAT buffer containing paragylin). Prepared fresh every day. Use within 30 minutes.
1,250 μl tissue 25 μl ^3 H-80H-DPAT (1 nM) 25 μl test substance/H2 O/blind serotonin (10 μM)
Incubation at 37° C. for 10 min.--at 10 sec. intervals. To the tubes is added 10 ml ice-cold 0.9% NaCl. Filtration through GF/F filters (use gloves). This procedure is repeated. Filters are placed in counting vials and 4 ml optiflow added (prepare in fume cupboard, use gloves). Counted at window 0-19 of the beta- counter (Pachard). Note that receptor box and lid are rinsed thoroughly in H2 O after use to avoid contamination. Further the analytical site is cleaned carefully every day.
(§2) Dissolved in H2 O, EtOH, MeOH or DMSO and further diluted in H2 O. The DPAT binding will stand concentrations of up to approx. 5% of these solvents without affecting the binding. Most stock solutions are stable at 4° C. Attention should, however, be paid to any precipitation, change in colour etc. Test-substance dilutions are always prepared fresh every day. When weighing out test substances, it is attempted to weigh out approx. 1 mg of substance. Less than 0.8 mg must never be weighed out and only infrequently more than 2 mg (for economy reasons) dependent, however on conc./assay.

5HT2 receptor = target: T2, 5HT2 receptor (Rattus norvegicus, UniProt P14842); assay: In Vitro Inhibition of 5HT2-Receptor Binding (3H-Ketanserine); set-up: species or system rat (male Wistar); details: 3H-Ketanserine 0.4 nM, rat frontal cortex, 37° C., 15 min
T2 construct: incubated with isolated cell-membrane fragments; from tissue; host or cells: frontal cortex of male Wistar rats (membranes)
Method: In Vitro Inhibition of 5HT2 -Receptor Binding
as §1, with “H-Ketanserine” for “H-80H-DPAT”, “GF/B” for “GF/F”, “non-specifically” for “nonspecifically”
The preparation is made in ice bath. Polytron kinematica is rinsed with milli-Q-H2 O before and after use. Male Wistar rats, 150-200 g are decapitated. Frontal cortex is removed quickly and weighed (approx. 200 mg). Frontal cortex is added to centrifuging vial containing 10 ml ice-cold D2 buffer. Homogenization applying polytron kinematica (homogenizer) setting 6 for 20 sec. The homogenizer is rinsed with 10 ml D2 buffer in another centrifuging vial. The 10 ml rinsing buffer is added to the tissue vial. Centrifuged at 18,000 rpm for 10 min. at 4° C. Final pellet is transferred to 125×vol. of same buffer. (Ex. 200 mg in 25 ml D2 buffer). Can be stored for approx. 30 min. at 0° C.
25 μl ^3 H-Ketanserine (0.4 nM)
25 μl test substance/H2 O/blind cyproheptadine (2 μM)
Incubation for 15 min. at 37° C.
10 ml ice-cold 0.9% NaCl is added to the tubes. Filtration is performed through GF/B filters (use gloves). This procedure is repeated. Filters are placed in counting vials, and 4 ml opti- flour is added (prepare in fume cupboard, use gloves). Counting at window 0-19 of the beta-counter (Pachard). Note that receptor box and lid are rinsed thoroughly in H2 O after use to avoid contamination. Further the analytical site is cleaned carefully every day.
as §2, with “The 5HT2” for “The DPAT”, “always made” for “always prepared”, “test substance,” for “test substances,”, “dependent, however,” for “dependent, however”

Alpha1 receptor = assay: In-Vitro Inhibition of Alpha1-Receptor Binding (3H-Prazosin); set-up: species or system rat (male Wistar); details: 3H-Prazosin 0.5 nM, rat cortex, 25° C., 30 min; read-out: Receptor binding IC50 α1
Method: In-Vitro Inhibition of Alpha1 -Receptor Binding, Radioactive-labelled ligand ^3 H-Prazosin is incubated with isolated cell-membrane fragments at 25° C. for a given period of time. Following completed incubation, the incubate is filtered through GF/B filters, which are rinsed following filtration to remove unspecifically adhered radioactivity. As opposed to low- molecular compounds, membrane fragments are not rinsed through the filters, the radioactivity bound to the filters indicates the amount of ligand bound specifically as well as nonspecifically to the membranes. The procedure is performed in ice bath. Polytron kinematica is rinsed with milli-Q-H2 O before and after use. Male Wistar rats, 150-200 g are decapitated, cortex is removed quickly and weighed (approx. 500 mg). Cortex is transferred to a centrifuging vial containing 10 ml ice-cold D2 buffer. Homogenization applying polytron kinematica (homogenizer) setting 6 for 20 sec. The homogenizer is rinsed with 10 ml D2 buffer in another centrifuging vial. The 10 ml rinsing buffer is added to the tissue vial. Centrifugation at 18,000 rpm for 12 min. at 4° C. This is repeated once. Final pellet is added to 400×vol. of same buffer. (Ex. 500 mg cortex in 200 ml D2 buffer). Can be stored for 30 min. at 0° C. 2,000 μl tissue 25 μl ^3 H-Prazosin (0.5 nM) 25 μl test substance/H2 O/blind Phentolamine (10 μM) Incubation for 30 min. at 25° C. 10 ml of ice-cold 0.9% NaCl is added to the tubes and filtered through GF/B filters (use gloves). This procedure is repeated. Filters are placed in counting vials and 4 ml opti-flour is added (perform in fume cupboard, use gloves). Counting is performed at window 0-19 of the betacounter (Pachard). […] Further, the analytical site is cleaned carefully every day after use. Dissolved in H2 O, EtOH, MeOH or DMSO and further diluted in H2 O. […] Most stock solutions are stable at 4° C. Attention should, however, be paid to any precipitation, change in colour etc. Test-substance dilutions are always prepared fresh every day. When weighing out test substances, it is attempted to weigh out approx. 1 mg of substance. Less than 0.8 mg must never be weighed out and only infrequently more than 2 mg (for economy reasons) dependent, however, on conc./ass.

T2 sequence (P14842 whole entry, the tested form may be a part): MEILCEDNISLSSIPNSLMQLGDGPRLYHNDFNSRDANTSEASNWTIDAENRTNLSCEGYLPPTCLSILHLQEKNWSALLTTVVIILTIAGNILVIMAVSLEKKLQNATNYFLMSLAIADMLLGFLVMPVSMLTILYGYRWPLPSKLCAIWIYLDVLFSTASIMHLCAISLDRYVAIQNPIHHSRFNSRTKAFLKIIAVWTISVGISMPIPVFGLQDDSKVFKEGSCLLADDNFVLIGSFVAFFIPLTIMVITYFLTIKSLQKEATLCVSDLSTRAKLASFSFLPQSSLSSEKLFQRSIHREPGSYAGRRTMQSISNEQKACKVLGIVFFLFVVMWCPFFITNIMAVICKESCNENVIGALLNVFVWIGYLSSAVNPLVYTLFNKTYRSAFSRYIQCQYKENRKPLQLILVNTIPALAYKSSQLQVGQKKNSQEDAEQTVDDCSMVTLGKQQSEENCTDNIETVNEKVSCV

## Cl.O=C(Nc1ccc2c(c1)OCCO2)OCCCN1CCN(c2cccc(Cl)c2)CC1 [Example 18, 4-(3-Chlorophenyl)-1-[3-(3,4-ethylenedioxyphenylcarbamoyloxy)propyl]piperazine, hydrochloride]
[1]
  ED50: 7 mg/kg

## O=C(c1ccc(F)cc1)C1CCN(CCn2c(=O)[nH]c3ccccc3c2=O)CC1 [ketanserin]
5-HT2 receptor
  affinity for / antagonism of 5-HT2 receptor (in words): high affinity

## CCOC(=O)C1(c2ccccc2)CCN(C)CC1 [Pethidine, reference compound]
[1]
  ED50: 9.3 mg/kg

## Cc1nc2sccn2c(=O)c1CCN1CCC(=C(c2ccc(F)cc2)c2ccc(F)cc2)CC1 [Ritanserin]
anxiety, depression
  anxiolytic / antidepressant efficacy (in words): demonstrate clinical efficacy as anxiolytic-antidepressant agents

## CCN(CC)CCOC(=O)C(Cc1cccc2ccccc12)CC1CCCO1 (centres unmarked) [naftidrofuryl]
[2]
  protective effect on ischemic neuronal damage in the gerbil (in words): exhibit a protective effect on ischemic neuronal damage

## Cc1nc2n(c(=O)c1CCN1CCC(c3noc4cc(F)ccc34)CC1)CCCC2 [Risperidone]
Dopamine D2 receptors
  antagonism of dopamine D2 receptors (in words): potent antagonist
psychosis
  antipsychotic properties (in words): antipsychotic properties

## O=C1CC2(CCCC2)CC(=O)N1CCCCN1CCN(c2ncccn2)CC1 [buspirone]
5-HT1A receptors
  binding affinity / selectivity for 5-HT1A receptors (in words): selectivity for 5-HT1A receptors
anxiety, depression
  anxiolytic / antidepressant efficacy (in words): effective anxiolytic agent

## CN1CCN(C2=Nc3cc(Cl)ccc3Nc3ccccc32)CC1 [clozapine]
psychosis
  antipsychotic properties (in words): unprecedented antipsychotic potential
[3]
  binding to 5HT2, alpha1-adrenergic and dopaminergic receptors (in words): nonselectively binds

## CCCN(CCC)C1CCc2cccc(O)c2C1 (centres unmarked) [Example 8-OH-DPAT, 8-hydroxy-2-(di-n-propylamino)tetralin]
5-HT1A receptors
  binding affinity / selectivity for 5-HT1A receptors (in words): high affinity
[2]
  protective effect on ischemic neuronal damage in the gerbil (in words): exhibit a protective effect on ischemic neuronal damage

## Cl.O=C(Nc1ccc2c(c1)OCO2)OCCCN1CCN(c2cccc(Cl)c2)CC1 [Example 15, 4-(3-Chlorophenyl)-1-[3-(3,4-methylenedioxyphenylcarbamoyloxy)propyl]piperazine, hydrochloride]
[1]
  ED50: 5.6 mg/kg

## COc1cc(NC(=S)OCCCN2CCN(c3ccccc3Cl)CC2)cc(OC)c1OC [Example 24, 4-(2-Chlorophenyl)-1-(3-[3,4,5-trimethoxyphenyl(thiocarbamoyl)oxy]propyl)piperazine, hydrochloride]
5HT1A receptor
  IC50: 61 nM
5HT2 receptor
  IC50: 49 nM
Alpha1 receptor
  IC50: 7.5 nM
